Test results reported in patent publication US10702504B2, “Degradation of tripartite motif-containing protein 24 (TRIM24) by conjugation of TRIM24 inhibitors with E3 ligase ligand and methods of use” (Dana-Farber Cancer Institute, Inc., priority 2016, dated 2020).

Columns and labels:
[1] = target: PHD-bromodomain of TRIM24 (Homo sapiens (Human), UniProt O15164); assay: TRIM24 binding alpha assay; conditions: Alpha Assay binding to TRIM24; compounds 50 μM to 0.002 μM
Procedure: The alpha TRIM24 binding assay is used to assess the binding of the compounds of the application. Compounds are added at various concentrations as well as a vehicle control. Compounds that bind to TRIM24 compete away the interaction between the PHD-bromodomain of TRIM24 bound to the donor bead, and the H3K23ac histone peptide bound to the acceptor bead, which causes a decrease in signal. IC50 values are calculated.
The alpha assay was used to assess the binding of the compounds of the application to TRIM24 at various concentrations. All compounds were added at concentrations from 50 μM to 0.002 μM. Compounds that bind to TRIM24 compete with the PHD-bromodomain of TRIM24 in interacting with the donor bead, and the H3K23ac histone peptide bound to the acceptor bead, which causes a decrease in signal. IC50 values were calculated by using Graphpad PRISM's log(inhibitor) vs. response—variable slope (four parameters).

[2] = target: TRIM24 (Homo sapiens (Human), UniProt O15164); assay: Destabilization of TRIM24 over time in MCF7 cells (immunoblot); type: cell-based
Chain of TRIM24 (O15164 whole entry): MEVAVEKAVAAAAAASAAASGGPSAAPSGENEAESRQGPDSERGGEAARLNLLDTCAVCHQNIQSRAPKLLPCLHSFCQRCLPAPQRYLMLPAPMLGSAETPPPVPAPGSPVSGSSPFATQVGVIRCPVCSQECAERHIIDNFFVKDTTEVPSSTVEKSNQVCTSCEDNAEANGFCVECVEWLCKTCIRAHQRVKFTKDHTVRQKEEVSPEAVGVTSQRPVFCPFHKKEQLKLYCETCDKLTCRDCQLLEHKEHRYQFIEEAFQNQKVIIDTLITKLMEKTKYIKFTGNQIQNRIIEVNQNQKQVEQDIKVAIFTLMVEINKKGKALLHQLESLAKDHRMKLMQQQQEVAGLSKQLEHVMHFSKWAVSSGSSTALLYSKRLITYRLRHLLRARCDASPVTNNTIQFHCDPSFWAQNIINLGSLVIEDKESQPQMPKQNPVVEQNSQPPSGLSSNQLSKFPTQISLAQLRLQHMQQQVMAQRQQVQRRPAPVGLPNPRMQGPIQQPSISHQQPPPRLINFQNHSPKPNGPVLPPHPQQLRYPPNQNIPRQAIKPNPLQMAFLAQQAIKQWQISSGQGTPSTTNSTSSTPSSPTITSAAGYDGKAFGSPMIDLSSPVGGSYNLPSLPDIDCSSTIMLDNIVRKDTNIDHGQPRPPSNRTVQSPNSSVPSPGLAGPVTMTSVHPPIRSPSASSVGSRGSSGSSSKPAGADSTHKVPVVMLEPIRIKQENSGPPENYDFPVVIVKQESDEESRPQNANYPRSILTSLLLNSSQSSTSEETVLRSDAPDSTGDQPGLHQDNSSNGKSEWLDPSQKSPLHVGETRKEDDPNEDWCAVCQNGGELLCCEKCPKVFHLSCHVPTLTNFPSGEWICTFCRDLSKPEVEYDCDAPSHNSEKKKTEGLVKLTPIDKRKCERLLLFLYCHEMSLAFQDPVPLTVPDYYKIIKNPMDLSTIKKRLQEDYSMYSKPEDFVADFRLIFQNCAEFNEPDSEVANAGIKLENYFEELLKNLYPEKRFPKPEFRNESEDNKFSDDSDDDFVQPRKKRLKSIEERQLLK
Procedure: Wild-type or cereblon null 293T cells, or MCF7 cells, were treated with compounds of the application. The cells were treated for 4 hours or 18 hours with representative compounds at a final concentration of 10 μM, 5 μM, or 0.5 μM, or with a vehicle control. Cells were harvested and lysed using RIPA buffer with Halt protease inhibitors and 0.1% benzonase on ice for 15 minutes. The amount of total protein was quantified using the BCA assay. Primary antibodies used were TRIM24 (Cell Signaling Technology) as well as actin (Santa Cruz). Blots were imaged using secondary antibodies (LI-COR) on the OdysseyCLxImager. Band intensities were quantified using the LI-COR software. TRIM24 signal was normalized to the actin loading control. The signal intensity of TRIM24 from cells treated with DMSO was set to 1, and all other treatment conditions were normalized to the DMSO condition per immunoblot to determine the level of TRIM24, which was expressed as a ratio to the TRIM24 level in the DMSO treated cells.
In addition. MCF7 cells were treated for 24, 48, and 72 hours with representative compounds of the application at 5 μM.

Chain of PHD-bromodomain of TRIM24 (O15164 824-1006): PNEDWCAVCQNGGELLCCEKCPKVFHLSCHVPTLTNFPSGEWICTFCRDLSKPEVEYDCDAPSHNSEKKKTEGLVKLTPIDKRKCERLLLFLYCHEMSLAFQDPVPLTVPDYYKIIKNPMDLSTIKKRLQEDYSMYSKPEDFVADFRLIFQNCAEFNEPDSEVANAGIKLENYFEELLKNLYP

IC50 [1]: 50 to 100 nM | level of TRIM24 compared to vehicle ([2]; 5 μM, 24, 48 and 72 hours): significantly reduced | decrease in the level of TRIM24 over time ([2]; 5 μM, 24 h to 72 h): continued over a 24 h to 72 h period
SMILES: CCCOc1cccc(Oc2cc3c(cc2NS(=O)(=O)c2cccc(C(=O)NCCOCCOCCOCC(=O)N[C@H](C(=O)N4C[C@H](O)C[C@H]4C(=O)NCc4ccc(-c5scnc5C)cc4)C(C)(C)C)c2)n(C)c(=O)n3C)c1 [I-B3, (2S,4R)-1-((S)-15-(tert-butyl)-1-(3-(N-(1,3-dimethyl-2-oxo-6-(3-propoxyphenoxy)-2,3-dihydro-1H-benzo[d]imidazol-5-yl)sulfamoyl)phenyl)-1,13-dioxo-5,8,11-trioxa-2,14-diazahexadecan-16-oyl)-4-hydroxy-N-(4-(4-methylthiazol-5-yl)benzyl)pyrrolidine-2-carboxamide]
